How the values were obtained:
C57Bl/6 mice [1] = assay: Elevated plus maze; assay type: in vivo, mouse; settings: chronic 10 mg/kg/day IP, week 1 of testing
From the text: (§1) See Supplementary Methods for details.
Elevated Plus Maze: The maze was made of acrylonitrile butadiene styrene (ABS) plastic and had two open arms and two close arms that were 30 cm long and 5 cm wide. The center area where the open and close arms meet was 5 cm x 5 cm. The open arms had 2 mm lips at the edges, and the closed arms had 15 cm opaque walls. The maze was elevated 50 cm and surrounded by privacy blinds during the test. The maze was illuminated to 7 lux using red light throughout the test. Each mouse was released in the center of the maze and given 5 min to explore the maze. Duration and frequency in each zone of the maze were recorded using Ethovision (Noldus Information Technology, Wageningen, the Netherlands) tracking software. […]

[2] = Pharmacokinetics in mouse serum and brain; assay type: in vivo; settings: 100 mg/kg IP
Procedure: Pharmacokinetics on 2MeGlu and 2MeGln in mice
C57BL/6 mice (Jackson Laboratory cat. no. 000664) were administered 100 mg/kg IP. At the times indicated, mice were deeply anesthetized by isoflurane, blood was collected by cardiac puncture and left to clot on ice, and then animals were perfused with cold PBS until viscera […]
dissected and one half frozen at –80 °C until homogenization in ice cold PBS (pH 7.4) using a probe ultrasonic homogenizer (Branson Sonifier 450, Power: 5, Cycle: 30%, time: 10 s) on ice.
The lysate was centrifuged (2,500g for 15 min at 4 °C) and the supernatant was assayed using Pierce BCA Protein Assay Kit (23225) using BioTek Epoch plate spectrophotometer by recording absorbance at 562 nm.
Two or three 10 μL aliquots of the homogenate were transferred to a 96 well plate and extracted with 190 μL of 60% acetonitrile in water containing 10 μM GABA-d6 or 10 μM Glu-d5 and Gln-d5 as internal standards. 40 μL aliquots of the extracts were then diluted with 120 μL of acetonitrile and prepared for LC-MS/MS analysis. Brain and serum half-lives were calculated using the ‘PKNCA’ package for R. Endogenous levels of Glu, Gln and GABA were determined in the brains of mice used in the pharmacokinetics experiment. MRM transitions specific for Glu, Gln and GABA were monitored simultaneously. […]

C57Bl/6 mice [3] = assay: Morris water maze; assay type: in vivo, mouse; settings: chronic 10 mg/kg/day IP, weeks 2 and 3 of testing
From the text: as §1
Elevated Plus Maze: The maze was made of acrylonitrile butadiene styrene (ABS) plastic and had two open arms and two close arms that were 30 cm long and 5 cm wide. The center area where the open and close arms meet was 5 cm x 5 cm. The open arms had 2 mm lips at the edges, and the closed arms had 15 cm opaque walls. The maze was elevated 50 cm and surrounded by privacy blinds during the test. The maze was illuminated to 7 lux using red light throughout the test. Each mouse was released in the center of the maze and given 5 min to explore the maze. Duration and frequency in each zone of the maze were recorded using Ethovision (Noldus Information Technology, Wageningen, the Netherlands) tracking software.
Y Maze Spontaneous Alternation: The Y maze is made of plastic with 3 arms in a "Y" shape.
The arms are labelled as Arm A, B, and C; Arm A is 20.32 cm (L) x 5 cm (W) 12.7 cm (H), Arm B and C are 15.24 cm (L) x 5 cm (W), and 12.7 cm (H). The test is based on the willingness of rodents to explore a novel environment and designed to measure spontaneous alternations in rodents. Each mouse was placed in the center of the maze facing Arm B. The first entry was excluded from data analysis because the animals were led to the initial arm entry by the experimenter. Using an overhead camera, the number of arm entries and alternations were recorded for 5 minutes. An arm entry is when all four paws enter into a new arm of the maze.
The apparatus was cleaned with 1% Virkon. Parameters recorded were % alternation and the total number of entries into arms. The Y maze test was conducted after two weeks of exposure […]
A ping pong ball was erected from the submerged platform and the mice were given two trials of Visible Platform Training to ensure they lacked gross sensorimotor deficit and visual impairment. The escape latency, distance moved, duration in zones, and velocity of the animals were recorded using Ethovision XT (Noldus Information Technology, Wageningen, Netherlands). […]

Row | Compound | Time spent in the open arms in the elevated plus maze (C57Bl/6 mice [1]) | Time of peak brain concentration [2] [min] | Learning in the Morris water maze (C57Bl/6 mice [3]) | Maximum brain concentration [2] [pmol/mg protein] | half-life ([2]; C57BL/6, brain, estimated) [min] | Brain accumulation (with metabolite (S)-2MeGln) relative to (R)-2MeGlu [2]
1 | CC(N)(CCC(N)=O)C(=O)O (racemic) [rac-2MeGln, rac-2-methylglutamine] | no significant effect of treatment | 25 | no significant effect of treatment |  |  | 
2 | C[C@@](N)(CCC(=O)O)C(=O)O [(R)-2MeGlu, (R)-2-methylglutamic acid] | no significant effect of treatment | ≤ 5 | no significant effect of treatment | 30 | ~70 | 
3 | C[C@](N)(CCC(=O)O)C(=O)O [(S)-2MeGlu, (S)-2-methylglutamic acid] | no significant effect of treatment | 25 | no significant effect of treatment | 50 |  | as much as tenfold more

Reference: PMC8047011, “Enantiomers of 2-methylglutamate and 2-methylglutamine selectively impact mouse brain metabolism and behavior” (Scientific Reports, 2021)
